Laboratory results reported in patent publication US9661853B2, “Molecules having pesticidal utility, and intermediates, compositions, and processes, related thereto” (Dow AgroSciences LLC, priority 2015, dated 2017).

How the values were obtained:
[1] = tested on: Yellow Fever Mosquito (Aedes aegypti, AEDSAE); format: in vivo; settings: 4000 ppm DMSO master solution diluted, about 1 day-old larvae, room temperature, scored after 3 days
Method: Bioassays on Yellow Fever Mosquito (Aedes aegypti, AEDSAE) (“YFM”)
Certain molecules disclosed in this document were tested against YFM using procedures described in the following paragraph. In the reporting of the results, the “YFM Rating Table” was used (See Table Section).
Master plates containing 400 μg of a molecule dissolved in 100 μL of dimethyl sulfoxide (DMSO) (equivalent to a 4000 ppm solution) are used. A master plate of assembled molecules contains 15 μL per well. To this plate, 135 μL of a 90:10 water/acetone mixture is added to each well. A robot (Biomek® NXP Laboratory Automation Workstation) is programmed to dispense 15 μL aspirations from the master plate into an empty 96-well shallow plate (“daughter” plate). There are 6 reps (“daughter” plates) created per master. The created “daughter” plates are then immediately infested with YFM larvae.
The day before plates are to be treated, mosquito eggs are placed in Millipore water containing liver powder to begin hatching (4 g into 400 mL). After the “daughter” plates are created using the robot, they are infested with 220 μL of the liver powder/larval mosquito mixture (about 1 day-old larvae). After plates are infested with mosquito larvae, a non-evaporative lid is used to cover the plate to reduce drying. […] After 3 days, each well is observed and scored based on mortality. […]

[2] = tested on: Beet Armyworm (Spodoptera exigua, LAPHEG); assay: Bioassay on Beet Armyworm (BAW), 128-well diet tray assay; format: in vivo; settings: 168 h, 50 μg/cm^2 on artificial diet, second instar larvae, 25° C., five to seven days, average of eight wells, read-out: BAW % Control (or Mortality) rating
Method: (§1) Bioassays on Beet Armyworm (Spodoptera exigua, LAPHEG) (“BAW”) and Cabbage Looper (Trichoplusia ni, TRIPNI) (“CL”)
(§2) Certain molecules disclosed in this document were tested against BAW and CL using procedures described in the following examples. In the reporting of the results, the “BAW & CL Rating Table” was used (See Table Section).
Bioassays on BAW were conducted using a 128-well diet tray assay. One to five second instar BAW larvae were placed in each well (3 mL) of the diet tray that had been previously filled with 1 mL of artificial diet to which 50 μg/cm^2 of the test molecule (dissolved in 50 μL of 90:10 acetone-water mixture) had been applied (to each of eight wells) and then allowed to dry. Trays were covered with a clear self-adhesive cover, vented to allow gas exchange, and held at 25° C., 14:10 light-dark for five to seven days. Percent mortality was recorded for the larvae in each well; activity in the eight wells was then averaged. The results are indicated in the table entitled “Table ABC: Biological Results” (See Table Section).

[3] = tested on: Cabbage Looper (Trichoplusia ni, TRIPNI); assay: Bioassay on Cabbage Looper (CL), 128-well diet tray assay; format: in vivo; settings: 168 h, 50 μg/cm^2 on artificial diet, second instar larvae, 25° C., five to seven days, average of eight wells, read-out: CL % Control (or Mortality) rating
Method: as §1, §2
Bioassays on CL were conducted using a 128-well diet tray assay. One to five second instar CL larvae were placed in each well (3 mL) of the diet tray that had been previously filled with 1 mL of artificial diet to which 50 μg/cm^2 of the test molecule (dissolved in 50 μL of 90:10 acetone-water mixture) had been applied (to each of eight wells) and then allowed to dry. Trays were covered with a clear self-adhesive cover, vented to allow gas exchange, and held at 25° C., 14:10 light-dark for five to seven days. Percent mortality was recorded for the larvae in each well; activity in the eight wells was then averaged. The results are indicated in the table entitled “Table ABC: Biological Results” (See Table Section).

| SMILES | melting point | YFM % Control (or Mortality) rating [1] | mortality at 50 µg/cm2 [2] [%] | mortality at 50 µg/cm2 [3] [%] |
| --- | --- | --- | --- | --- |
| CCCc1ccc(C)cc1N1C(=O)CS/C1=N\C(=O)Nc1ccc(CNc2ncn(-c3ccc(OC(F)(F)F)cc3)n2)cc1 [F3, (Z)-1-(3-(5-Methyl-2-propylphenyl)-4-oxothiazolidin-2-ylidene)-3-(4-(((1-(4-(trifluoromethoxy)phenyl)-1H-1,2,4-triazol-3-yl)amino)methyl)phenyl)urea] | – | A (80-100) | 50 to 100 | 50 to 100 |
| CCCc1ccc(C)cc1N1C(=O)CS/C1=N\C(=O)Nc1ccc(CNc2ncn(-c3ccc(OC(F)(F)F)cc3)n2)cc1F [F5, (Z)-1-(2-Fluoro-4-(((1-(4-(trifluoromethoxy)phenyl)-1H-1,2,4-triazol-3-yl)amino)methyl)phenyl)-3-(3-(5-methyl-2-propylphenyl)-4-oxothiazolidin-2-ylidene)urea] | – | A (80-100) | 50 to 100 | 50 to 100 |
| Cc1ccc(C(C)C)c(N2C(=O)CS/C2=N\C(=O)Nc2ccc(NCc3ncn(-c4ccc(OC(F)(F)F)cc4)n3)nc2)c1 [F46, (Z)-1-(3-(2-isopropyl-5-methylphenyl)-4-oxothiazolidin-2-ylidene)-3-(6-(((1-(4-(trifluoromethoxy)phenyl)-1H-1,2,4-triazol-3-yl)methyl)amino)pyridin-3-yl)urea] | – | – | 50 to 100 | 50 to 100 |
| Cc1ccc(C(C)C)c(N2C(=O)CS/C2=N\C(=O)Nc2ccc(NCc3ncn(-c4ccc(OC(F)(F)F)cc4)n3)cn2)c1 [F47, (Z)-1-(3-(2-isopropyl-5-methylphenyl)-4-oxothiazolidin-2-ylidene)-3-(5-(((1-(4-(trifluoromethoxy)phenyl)-1H-1,2,4-triazol-3-yl)methyl)amino)pyridin-2-yl)urea] | – | – | 50 to 100 | 50 to 100 |

Second part, led by results:

| melting point | SMILES | YFM % Control (or Mortality) rating [1] | mortality at 50 µg/cm2 [2] [%] | mortality at 50 µg/cm2 [3] [%] |
| --- | --- | --- | --- | --- |
| 236 to 238 °C | Cc1ccc(C(C)C)c(N2C(=O)CS/C2=N\C(=O)Nc2ccc(CNc3ncn(-c4ccc(OC(F)(F)F)cc4)n3)cc2F)c1 | – | – | – |
| 184 °C (dec.) | CCCc1ccc(C)cc1N1C(=O)CS/C1=N\C(=O)Nc1ccc(CN(C)c2ncn(-c3ccc(OC(F)(F)F)cc3)n2)cn1 | – | – | – |
| 174 to 176 °C | CCCc1ccc(C)cc1N1C(=O)CS/C1=N\C(=O)Nc1ccc(CN(C)c2ncn(-c3ccc(OC(F)(F)F)cc3)n2)cc1F | – | – | – |
| 205 to 207 °C | COCc1ccc(C)cc1N1C(=O)CS/C1=N\C(=O)Nc1ccc(CNc2ncn(-c3ccc(OC(F)(F)F)cc3)n2)cc1F | – | – | – |
